# Measured values reported in US11730723B2, “Compounds and methods for treating viral infections” (priority 2020, dated 2023).
# Several values for one entry are separate records, joined by “and”; a condition that tells them apart may be missing. Identical values can stand only once. Like-named read-outs stand apart in the source and are kept apart here.
# Tests used:
# HCoV-OC43 [1] = experiment: HCoV-OC43 CPE assay in Huh-7 cells (neutral red uptake, 6 days); assay type: cell-based, human coronavirus (HCoV) OC43 strain; settings: for Raw OD-Absorbance 490 nm: infected Huh-7, neutral red uptake, individual replicates
# HCoV-OC43 [2] = experiment: HCoV-OC43 efficacy in H292 cells (MTT, 6 days); assay type: cell-based, HCoV-OC43 (Betacoronavirus 1)
# HCoV 229E = HCoV 229E CPE assay in MRC-5 cells (CellTiter Glo); assay type: cell-based, human coronavirus (HCoV) 229E; settings: unidentified human coronavirus, MRC5; MRC-5 cells, CellTiter Glo; read-out: HCoV 229E CPE assay EC50
# HCoV OC43 = HCoV OC43 CPE assay in Huh7 cells (CellTiter Glo); assay type: cell-based, human coronavirus (HCoV) OC43; settings: Betacoronavirus 1, OC43, Huh-7; Huh7 cells, CellTiter Glo; read-out: HCoV OC43 CPE Assay EC50
# [3] = test system: MERS coronavirus (EMC strain); experiment: microbe, parasite or virus in culture; assay type: cell-based, MERS-CoV; settings: Middle East respiratory syndrome-related coronavirus
# [4] = Cytotoxicity in HepG2 2.2.15 cells (MTS); assay type: cell-based; settings: human, same assay plate
# [5] = test system: SARS-CoV-2 (USA-WA1/2020); settings: Compound 1 at 25 μM; HCQ at 5 μM; remdesivir 10 μM
# Vero E6 cells = settings: for viability of Vero E6 cells (percent of vehicle alone): 2-day treatment, mean ± SD of duplicates
# in vitro [6] = settings: African green monkey
# in vitro [7] = settings: African green monkey, Vero 76 cells
# in vitro [8] = settings: African green monkey; remark: listed apart in the source
# [9] = test system: SARS-CoV-2 (USA-WA1/2020); experiment: microbe, parasite or virus in culture
# [10] = Cytotoxicity on Huh7 cells (CellTiter Glo); settings: human, Huh7 cells without virus
# H292 cells (NCI-H292) = experiment: Cytotoxicity in uninfected H292 cells (MTT); settings: CC50, uninfected H292 cells
# [11] = Cytotoxicity on MRC-5 cells (CellTiter Glo); settings: human, MRC-5 cells without virus
# [12] = test system: alpha coronavirus 229E (CoV-229E); experiment: CoV-229E virus-induced CPE inhibition in MRC-5 cells (XTT); settings: 6 days
# [13] = test system: HBV wild-type strain ayw1; experiment: Primary anti-HBV assay in HepG2 2.2.15 cells (qPCR of HBV DNA); settings: Hepatitis B virus, HepG2 2.2.15, 144 h
# Huh-7 cells = experiment: Cytotoxicity / viability of uninfected Huh-7 cells (XTT, 6 days); settings: 6 days, raw absorbance 490 nm, individual replicates, listed as Compd. 1
# [14] = test system: dengue virus (DENV) serotype 2 strain D2S221; experiment: Dengue virus D2S221 inhibition assay in Vero cells (immunostaining); settings: read-out: D2S221 IC50
structure (smiles),measurement,setting,value
"CC(C)C[C@](C)(N)COc1ccc(-c2ccnc(C(F)F)c2)nc1C(F)F [Compound 1, (S)-1-((2′,6-bis(difluoromethyl)-[2,4′-bipyridin]-5-yl)oxy)-2,4-dimethylpentan-2-amine]",EC50,"HCoV-OC43 [1]; Betacoronavirus 1, OC43, 144 h, Huh-7 cells, 6 days, neutral red",> 30 µM
same,inhibition at 0.01 µM,"HCoV-OC43 [1]; Betacoronavirus 1, OC43, Huh-7, 0.01 μM, mean of duplicates, read-out: Inhibition of OC43 Virus-Induced CPE in Huh-7 Cells",-0.4%
same,inhibition at 0.04 µM,"HCoV-OC43 [1]; Betacoronavirus 1, OC43, Huh-7, 0.04 μM, mean of duplicates, read-out: Inhibition of OC43 Virus-Induced CPE in Huh-7 Cells",-3%
same,inhibition at 0.12 µM,"HCoV-OC43 [1]; Betacoronavirus 1, OC43, Huh-7, 0.12 μM, mean of duplicates, read-out: Inhibition of OC43 Virus-Induced CPE in Huh-7 Cells",-1.2%
same,inhibition at 0.4 µM,"HCoV-OC43 [1]; Betacoronavirus 1, OC43, Huh-7, 0.4 μM, mean of duplicates, read-out: Inhibition of OC43 Virus-Induced CPE in Huh-7 Cells",-1.8%
same,inhibition at 1.1 µM,"HCoV-OC43 [1]; Betacoronavirus 1, OC43, Huh-7, 1.1 μM, mean of duplicates, read-out: Inhibition of OC43 Virus-Induced CPE in Huh-7 Cells",5.4%
same,inhibition at 3.3 µM,"HCoV-OC43 [1]; Betacoronavirus 1, OC43, Huh-7, 3.3 μM, mean of duplicates, read-out: Inhibition of OC43 Virus-Induced CPE in Huh-7 Cells",25.2%
same,inhibition at 10 µM,"HCoV-OC43 [1]; Betacoronavirus 1, OC43, Huh-7, 10 μM, mean of duplicates, read-out: Inhibition of OC43 Virus-Induced CPE in Huh-7 Cells",30.7%
same,inhibition at 30 µM,"HCoV-OC43 [1]; Betacoronavirus 1, OC43, Huh-7, 30 μM, mean of duplicates, read-out: Inhibition of OC43 Virus-Induced CPE in Huh-7 Cells",-7.1%
same,Raw OD-Absorbance 490 nm,"HCoV-OC43 [1]; 0.01 μM, listed as Compd. 1",0.102 and 0.101
same,Raw OD-Absorbance 490 nm,"HCoV-OC43 [1]; 0.04 μM, listed as Compd. 1",0.078 and 0.089
same,Raw OD-Absorbance 490 nm,"HCoV-OC43 [1]; 0.12 μM, listed as Compd. 1",0.092 and 0.099
same,Raw OD-Absorbance 490 nm,HCoV-OC43 [1]; 0.4 μM,0.092
same,Raw OD-Absorbance 490 nm,"HCoV-OC43 [1]; 1.1 μM, listed as Compd. 1",0.115 and 0.165
same,Raw OD-Absorbance 490 nm,"HCoV-OC43 [1]; 3.3 μM, listed as Compd. 1",0.292 and 0.253
same,Raw OD-Absorbance 490 nm,"HCoV-OC43 [1]; 10 μM, listed as Compd. 1",0.322 and 0.297
same,Raw OD-Absorbance 490 nm,"HCoV-OC43 [1]; 30 μM, listed as Compd. 1",0.057 and 0.056
same,EC50,"HCoV-OC43 [2]; Betacoronavirus 1, NCI-H292, EC50, HCoV-OC43 infected H292 cells, MTT, read-out: Efficacy",1.43 µM
same,antiviral activity against β-coronavirus OC43 in H292 cells (in words),"HCoV-OC43 [2]; viability of infected H292 cells, FIG. 6",significant antiviral effect
same,EC50,HCoV 229E,3.64 µM
same,EC50,HCoV OC43,6 µM
same,EC50,"[3]; Vero 76, read-out: EC50 measured by microscopic visual assay",6.4 µg/mL
same,EC50,"[3]; Vero 76, read-out: EC50 measured by neutral red assay",5.4 µg/mL
same,CC50,[4],29.3 µM
same,prevention of the SARS-CoV-2 induced CPE (in words),[5],partially prevented the virus induced cytopathic effect
same,viability of Vero E6 cells (percent of vehicle alone),Vero E6 cells; 1.56 μM,101.0 ± 5.2%
same,viability of Vero E6 cells (percent of vehicle alone),Vero E6 cells; 3.13 μM,97.1 ± 5.2%
same,viability of Vero E6 cells (percent of vehicle alone),Vero E6 cells; 6.3 μM,86.2 ± 3.2%
same,viability of Vero E6 cells (percent of vehicle alone),Vero E6 cells; 12.5 μM,83.3 ± 1.7%
same,viability of Vero E6 cells (percent of vehicle alone),Vero E6 cells; 25 μM,80.7 ± 2.4%
same,viability of Vero E6 cells (percent of vehicle alone),Vero E6 cells; 50 μM,17.3 ± 8.4%
same,viability of Vero E6 cells (percent of vehicle alone),Vero E6 cells; 100 μM,2.0 ± 0.2%
same,viability of Vero E6 cells (in words),"Vero E6 cells; Compound 1 at concentrations lower than 25 μM, HCQ at all concentrations tested",not significantly changed
same,CC50,in vitro [6],37 µM
same,CC50,in vitro [7]; CC50 measured by microscopic visual assay,22 µg/mL
same,CC50,in vitro [7]; CC50 measured by neutral red assay,11 µg/mL
same,CC50 at 4 days,in vitro [8],13.5 µM
same,IC50,"[9]; Severe acute respiratory syndrome coronavirus 2, Vero C1008, 48 h, read-out: Live SARS-CoV-2 Antiviral Assay IC50",12.5 to 25 µM
same,viability at 25 µM,"[9]; Severe acute respiratory syndrome coronavirus 2, Vero C1008, read-out: cell viability in the infected culture, of the levels observed in uninfected cells",80%
same,CC50,[10],13.2 µM
same,Cytotoxicity,H292 cells (NCI-H292),57.72 µM
same,CC50,[11],15 µM
same,EC50,[12],~2.4 µM and 2.4 µM
same,EC50,[13],6.35 µM
same,EC90,[13],> 100 µM
same,Viability of Huh-7 Cells (A490),Huh-7 cells; 0.01 μM,0.749 and 0.746
same,Viability of Huh-7 Cells (A490),Huh-7 cells; 0.04 μM,0.731 and 0.759
same,Viability of Huh-7 Cells (A490),Huh-7 cells; 0.12 μM,0.822 and 0.825
same,Viability of Huh-7 Cells (A490),Huh-7 cells; 0.37 μM,0.886 and 0.928
same,Viability of Huh-7 Cells (A490),Huh-7 cells; 1.1 μM,0.925 and 0.996
same,Viability of Huh-7 Cells (A490),Huh-7 cells; 3.3 μM,1.017 and 1.085
same,Viability of Huh-7 Cells (A490),Huh-7 cells; 10 μM,0.915 and 1.016
same,Viability of Huh-7 Cells (A490),Huh-7 cells; 30 μM,0.052 and 0.053
same,Viability of Huh-7 Cells (A490),Huh-7 cells; 90 μM,0.055 and 0.054
same,IC50,[14],6.66 µM
